Measured values taken from patent publication US9434763B2, “Derivatives of pyridinone as inhibitors for tissue transglutaminase” (ZEDIRA GMBH, priority 2012, dated 2016).

Experiments:
[1] = system: Huh 7 (human hepatome-cell line); assay: Cytotoxicity: metabolic activity, EZ4U-Assay, Huh 7; type: cell-based
Protocol: (§1) Huh 7 (human hepatome-cell line) and CaCo2 (human colon carcinoma-cell line) were seeded to 96 well plates in Dulbecco's Modified Eagle's Medium (DMEM)/10% fetal calf serum (FCS) and cultivated. The method is known to the skilled person.
[…] The determination of the proliferation was carried out using the Cell Proliferation ELISA, BrdU (Roche 11 647 229 001): 24 hours after incubation of the cells with the inhibitor BrdU was added. The colorimetric development of the test was made after further 48 hours according to manufacturer's information. The extinction was measured at 450 nm. For determination of the metabolic activity using the EZ4U-Assay (Biomedica B1-5000) the tetrazolium substrate was added to the cells 48 hours after addition of the inhibitor. The capacity for reaction of the cells was measured every hour over a period of 4 hours at 450 nm against a reference filter of 630 nm. DMEM without inhibitor was added as reference in both experiments, as positive control cycloheximide (2.5 μg/ml) and camptothecin (0.2 μg/ml).

[2] = system: CaCo2 (human colon carcinoma-cell line); assay: Cytotoxicity: metabolic activity, EZ4U-Assay, CaCo2; type: cell-based
Protocol: as §1
After one hour the inhibitors A63 (ZED1227), A29 (ZED1098) and A61 (ZED1219) were added in the concentrations 0.1 μM to 1 μM. The determination of the proliferation was carried out using the Cell Proliferation ELISA, BrdU (Roche 11 647 229 001): 24 hours after incubation of the cells with the inhibitor BrdU was added. The colorimetric development of the test was made after further 48 hours according to manufacturer's information. The extinction was measured at 450 nm. For determination of the metabolic activity using the EZ4U-Assay (Biomedica B1-5000) the tetrazolium substrate was added to the cells 48 hours after addition of the inhibitor. The capacity for reaction of the cells was measured every hour over a period of 4 hours at 450 nm against a reference filter of 630 nm. DMEM without inhibitor was added as reference in both experiments, as positive control cycloheximide (2.5 μg/ml) and camptothecin (0.2 μg/ml).

[3] = target: T1, TG2 in tissue sections (Mus musculus, UniProt P21981); assay: Ex vivo testing of inhibitors on small intestine sections of a control mouse; conditions: pre-incubated with 0.2 mg/ml and 0.02 mg/ml inhibitor
T1 construct: from tissue; host or cells: mouse small intestine cryosections (mucosa)
T1 sequence (P21981 1-686): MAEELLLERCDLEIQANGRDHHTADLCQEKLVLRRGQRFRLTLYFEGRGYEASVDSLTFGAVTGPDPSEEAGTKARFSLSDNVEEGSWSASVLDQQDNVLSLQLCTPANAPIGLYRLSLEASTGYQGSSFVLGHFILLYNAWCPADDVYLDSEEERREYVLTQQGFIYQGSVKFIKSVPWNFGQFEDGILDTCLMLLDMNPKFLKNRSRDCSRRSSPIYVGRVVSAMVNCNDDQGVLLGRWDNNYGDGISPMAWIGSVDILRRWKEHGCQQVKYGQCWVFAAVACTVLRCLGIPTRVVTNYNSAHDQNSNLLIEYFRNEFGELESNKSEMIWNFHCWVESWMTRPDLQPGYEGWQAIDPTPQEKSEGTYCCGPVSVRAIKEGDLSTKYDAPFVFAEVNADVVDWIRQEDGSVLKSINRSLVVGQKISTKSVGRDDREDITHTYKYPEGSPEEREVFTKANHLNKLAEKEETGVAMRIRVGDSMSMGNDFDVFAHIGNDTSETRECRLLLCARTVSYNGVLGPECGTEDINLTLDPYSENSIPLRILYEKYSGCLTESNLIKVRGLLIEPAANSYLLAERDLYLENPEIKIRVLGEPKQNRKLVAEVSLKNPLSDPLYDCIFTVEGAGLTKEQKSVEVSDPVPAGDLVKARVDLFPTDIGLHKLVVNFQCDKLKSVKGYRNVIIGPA
Protocol: After a washing step (1% BSA in PBS buffer), incubation was carried out with 4 μg/ml of the TG2 substrate biotinyl-TVQQEL (Zedira, product number B001) in the presence of 5 mM CaCl2 for 2 h at room temperature. The reaction was stopped with 25 mM EDTA. After one further washing, blocking, and washing step, the primary antibody against human TG2 was added (Zedira, product number A018, 25 μg/ml) and incubated for one hour at room temperature. After four wash steps, streptavidin-FITC (2 μg/ml, streptavidin-fluorescein-isothiocyanate) and Cy3-labeled goat anti-rabbit IgG antibodies (22.5 μg/ml) were added and incubated in the dark at room temperature for 40 min. TG2 was thus visible in the fluorescence microscope as red color (Cy3), whereas biotinyl-TVQQEL incorporated by transglutaminase activity was visualized by green staining (FITC). The superposition of both images led to a yellow color when active transglutaminase was present.
[…] Then the staining protocol as described in example 10 was carried out. In the control sections with 0.0 mg/ml inhibitor yellow staining in the mucosa of the small intestinal was detected, which is due to active TG2.

CC[C@@H](C)[C@H](NC(=O)Cn1cccc(NC(=O)[C@H](CC/C=C/C(=O)OC)NC(=O)c2ccccc2)c1=O)C(=O)O [A61, (2S,3R)-2-(2-(3-((S,E)-2-benzamido-7-methoxy-7-oxohept-5-enamido)-2-oxopyridin-1(2H)-yl)acetamido)-3-methylpentanoic acid]
effect on metabolic activity (EZ4U) [1]: no effect | effect on metabolic activity (EZ4U) [2]: no effect | TG2 inhibition in sections at the higher concentrations of inhibitor [3]: completely inhibited

CCC(CC)CNC(=O)Cn1cccc(NC(=O)[C@H](CC/C=C/C(=O)OC)NC(=O)c2cncn2C)c1=O [A63, (S,E)-Methyl 7-(1-(2-(2-ethylbutylamino)-2-oxoethyl)-2-oxo-1,2-dihydropyridin-3-ylamino)-6-(1-methyl-1H-imidazole-5-carboxamido)-7-oxohept-2-enoate]
effect on metabolic activity (EZ4U) [1]: no effect | effect on metabolic activity (EZ4U) [2]: no effect | TG2 inhibition in sections at the higher concentrations of inhibitor [3]: completely inhibited

COC(=O)/C=C/CC[C@H](NC(C)=O)C(=O)Nc1cccn(CC(=O)NCCC(C)C)c1=O [A29, (S,E)-methyl 6-acetamido-7-(1-(2-(isopentylamino)-2-oxoethyl)-2-oxo-1,2-dihydropyridin-3-ylamino)-7-oxohept-2-enoate]
effect on metabolic activity (EZ4U) [1]: no effect | effect on metabolic activity (EZ4U) [2]: no effect
